Test results published in patent US9096580B2 (priority 2012, dated 2015).

What was measured:
[1] = tested on: genotype 1b HCV replicon in Huh-7 cells; assay: HCV replicon luciferase assay; format: cell-based, HCV genotype 1b; settings: Hepatitis C virus, 72 h; Huh-7 genotype 1b replicon, Renilla luciferase, 3 days incubation
Description: The cell lines used to evaluate compounds consist of a human hepatocyte derived cell line (Huh-7) that constitutively expresses a genotype 1b HCV replicon containing a Renilla luciferase reporter gene. These cells were maintained in Dulbecco's modified Eagle medium (DMEM) containing 10% FBS, 100 U/mL penicillin/streptomycin and 1.0 mg/mL G418.
HCV Replicon Luciferase Assay.
To evaluate compound efficacy, titrated compounds were transferred to sterile 384-well tissue culture treated plates, and the plates were seeded with HCV replicon cells (50 μL at a density of 2.4×10^3 cells/well) in DMEM containing 4% FBS (final DMSO concentration at 0.5%). After 3 days incubation at 37° C., cells were analyzed for Renilla Luciferase activity using the EnduRen substrate (Promega cat #E6485) according to the manufacturer's directions. Briefly, the EnduRen substrate was diluted in DMEM and then added to the plates to a final concentration of 7.5 μM. The plates were incubated for at least 1 h at 37° C. then read on a Viewlux Imager (PerkinElmer) using a luminescence program. The 50% effective concentration (EC50) was calculated using the four-parameter logistic formula noted above.

[2] = target: HCV NS5B RdRp, genotype 1b (Hepatitis C virus genotype 1b (isolate Con1) (HCV), UniProt Q9WMX2); assay: HCV NS5B RdRp enzyme assay; format: biochemical, HCV genotype 1b
Chain of HCV NS5B RdRp, genotype 1b (Q9WMX2 2420-2992): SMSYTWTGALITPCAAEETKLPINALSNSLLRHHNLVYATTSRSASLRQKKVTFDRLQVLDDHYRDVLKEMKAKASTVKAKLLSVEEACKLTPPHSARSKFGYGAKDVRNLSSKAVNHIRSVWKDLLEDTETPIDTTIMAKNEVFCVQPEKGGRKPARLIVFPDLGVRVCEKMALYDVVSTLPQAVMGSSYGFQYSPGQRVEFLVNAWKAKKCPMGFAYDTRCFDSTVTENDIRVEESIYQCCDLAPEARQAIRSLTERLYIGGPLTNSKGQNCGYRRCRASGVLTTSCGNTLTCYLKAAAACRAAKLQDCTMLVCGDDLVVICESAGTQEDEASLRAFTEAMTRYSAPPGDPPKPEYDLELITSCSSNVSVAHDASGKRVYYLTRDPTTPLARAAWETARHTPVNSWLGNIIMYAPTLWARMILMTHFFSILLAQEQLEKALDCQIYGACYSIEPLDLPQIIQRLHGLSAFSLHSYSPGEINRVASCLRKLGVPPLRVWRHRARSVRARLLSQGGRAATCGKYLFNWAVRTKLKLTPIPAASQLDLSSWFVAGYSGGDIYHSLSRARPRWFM
Description: HCV NS5B RdRp Cloning, Expression, and Purification.
The cDNA encoding the NS5B protein of HCV, genotype 1b, was cloned into the pET21a expression vector. The protein was expressed with an 18 amino acid C-terminal truncation to enhance the solubility. The E. coli competent cell line BL21(DE3) was used for expression of the protein. Cultures were grown at 37° C. for ˜4 hours until the cultures reached an optical density of 2.0 at 600 nm. The cultures were cooled to 20° C. and induced with 1 mM IPTG. Fresh ampicillin was added to a final concentration of 50 μg/mL and the cells were grown overnight at 20° C.
The lysis buffer consisted of 20 mM Tris-HCl, pH 7.4, 500 mM NaCl, 0.5% triton X-100, 1 mM DTT, 1 mM EDTA, 20% glycerol, 0.5 mg/mL lysozyme, 10 mM MgCl2, 15 ug/mL deoxyribonuclease I, and Complete TM protease inhibitor tablets (Roche). After addition of the lysis buffer, frozen cell pellets were resuspended using a tissue homogenizer. […]
After incubating for at least 15 minutes, plates were read on an Amersham LEADseeker multimodality imaging system.
IC50 values for compounds were determined using ten different [I]. IC50 values were calculated from the inhibition using the four-parameter logistic formula y=A+((B−A)/(1+((C/x)^D))), where A and B denote minimal and maximal % inhibition, respectively, C is the IC50, D is hill slope and x represents compound concentration.

HCV [3] = settings: cited from earlier work
HCV [4] = settings: combination therapy; cited from earlier work

CNC(=O)c1c(-c2ccc(F)cc2)oc2ccc(-c3cc(C(=O)NC4(c5ncccn5)CNC4)c(OC)cc3C)c(F)c12
EC50 [1]: 900 nM

CNC(=O)c1c(-c2ccc(F)cc2)oc2ccc(-c3cc(C(=O)NC4(c5ncccn5)CNC4)cc(F)c3C)c(F)c12
EC50 [1]: 390 nM | IC50 [2]: 330 nM

CNC(=O)c1c(-c2ccc(F)cc2)oc2ccc(-c3cc(C(=O)NC4(c5ncccn5)CN(C)C4)ccc3C)c(F)c12
EC50 [1]: 2460 nM | IC50 [2]: 780 nM

CNC(=O)c1c(-c2ccc(F)cc2)oc2ccc(-c3cc(C(=O)NC4(c5ncccn5)CN(C)C4)c(OC)cc3C)c(F)c12
EC50 [1]: 1190 nM

CNC(=O)c1c(-c2ccc(F)cc2)oc2ccc(-c3cc(C(=O)NC4(c5ncccn5)CNC4)ccc3C)c(F)c12 [4-fluoro-2-(4-fluorophenyl)-N-methyl-5-(2-methyl-5-(3-(pyrimidin-2-yl)azetidin-3-ylcarbamoyl)phenyl)benzofuran-3-carboxamide]
EC50 [1]: 4330 nM

CNC(=O)c1c(-c2ccc(F)cc2)oc2ccc(-c3cc(C(=O)NC4(c5ncccn5)CN(C)C4)cc(F)c3C)c(F)c12 [4-fluoro-5-(3-fluoro-2-methyl-5-(1-methyl-3-(pyrimidin-2-yl)azetidin-3-ylcarbamoyl)phenyl)-2-(4-fluorophenyl)-N-methylbenzofuran-3-carboxamide]
EC50 [1]: 820 nM

CNC(=O)c1c(-c2ccc(F)cc2)oc2cc(N(CCO)S(C)(=O)=O)c(C3CC3)cc12 [HCV-796]
toxicity during extended dosing (HCV [3]; extended dosing of the combination regimens with interferon and ribavirin): hepatic toxicity | HCV RNA levels in patients (HCV [3]; patients, single agent: transient decrease then rebound): reduce HCV RNA levels

alpha-interferon and ribavirin
sustained efficacy, share of patients (HCV [4]): 40%
